Source: patent US20050170041A1, “Chewing gum compositions comprising monatin and methods for making same” (Cargill, Inc., priority 2003, published 2005)

Columns and labels:
[1] = Sensory evaluation of chewing gums (quality and time-intensity of sweetness); type: in vivo; settings: in chewing gum, versus aspartame or sucralose
Procedure: Chewing gums sweetened individually with monatin, aspartame and sucralose were prepared in stick gum format of mint flavor. The gums were prepared to be iso-sweet and evaluated for quality of sweet taste and time-intensity of sweetness delivery.
A standard method of manufacture was adopted for all three gum formulations, as described.
The method of gum manufacture was as follows: • Pre-warm the gum base to 40-45° C. and then add to Z-blade mixer and mix • Sieve sorbitol powder • Remove a portion of the sorbitol, disperse sweetener in that portion and mix thoroughly • Return sweetener/sorbitol mix to remaining bulk of sorbitol powder and mix thoroughly • Mix lycasin and glycerol into a bowl and pre-heat to 50° C. • Add sorbitol powder to the Z-blade mixer containing the gum base • Add lycasin/glycerol and flavor to the Z-blade and mix for 20 minutes • Remove gum from Z-blade mixer • Roll to a thickness of 1.5 mm using a mechanical roller • Dust with talc in the ratio 3 g talc to 100 g gum • Cut into sticks measuring 19 mm×73 mm • Wrap individual sticks in foil Sensory Evaluation
Chewing gum compositions were evaluated by a panel of trained sensory assessors (n 4), all very experienced in the formal sensory evaluation of chewing gums, including an evaluation for time/intensity parameters. Qualitative and temporal characteristics of the gum's flavor and sweetness were evaluated.

[2] = Sensory evaluation of sweeteners in iced tea; type: in vivo; settings: 200 ml serving, aspartame 450 ppm, monatin 40 ppm, panel n=6
Procedure: Monatin formulations, including R,R monatin or R,R monatin/erythritol combinations, were assessed relative to other known sweeteners (aspartame and sucralose) in iced tea. The key sensory parameters assessed included sweetness quality, aftertaste, bitter taste and its aftertaste. Qualitative evaluation has been carried out.
An ice tea formulation was developed to evaluate sweetener performance (Table 7).
Sweeteners were added to tea at the following concentrations:
The evaluation of ice tea drinks was carried out by a panel (n=6) of experienced sensory evaluators.

SMILES: NC(CC(O)(Cc1c[nH]c2ccccc12)C(=O)O)C(=O)O (centres unmarked) [Monatin, 2-hydroxy-2-(indol-3-ylmethyl)-4-aminoglutaric acid]
- time/intensity profile for sweetness [1]: very clearly superior to either aspartame or sucralose
- Comments: flavor enhancement (lemon flavor notes) [2]: enhanced the lemon flavor notes
